# Reference: publication PMC11375794, “Discovery of new Hsp90–Cdc37 protein–protein interaction inhibitors: in silico screening and optimization of anticancer activity” (RSC Advances, 2024)
# How the values were obtained:
# [1] = test system: Hsp90 client protein levels (Cdk4, Akt, c-Raf, ERα, IGF1R) and Hsp70, Hsp90 in MCF-7 cells; assay: Western blot of Hsp90 client proteins and heat shock proteins; assay type: cell-based; conditions: for ERα level: MCF-7, 20 μM; for heat shock response (Hsp70 and Hsp90 levels): MCF-7, 24 hours
# Experimental: MCF-7 cells were treated with compounds 8c (20 μM and 50 μM), 13g (20 μM and 50 μM) and DDO-5936 (20 μM) or 0.5% DMSO as a negative control. The cells were incubated with the compounds or negative control for 24 hours. After incubation, the cells were rinsed with PBS (Gibco, Thermo Fisher Scientific, Waltham, MA, USA) and lysed using RIPA buffer containing 50 mM Tris–HCl pH 7.4, 150 mM NaCl, 1% NP-40, 0.5% sodium deoxycholate, and 1 mM EDTA. The RIPA buffer was further supplemented with Halt™ Protease Inhibitor Cocktail and Halt™ Phosphatase Inhibitor Cocktail (both from Thermo Fisher Scientific, Waltham, MA, USA) at a 1 : 100 dilution. The lysates were then frozen for at least 24 hours. Upon thawing, the lysates were sonicated and centrifuged at 15 000 rpm for 20 minutes at 4 °C. Only the supernatants were collected, and protein concentration was measured using the DC protein assay (Bio-Rad, Hercules, California, USA). Proteins (20 μg) were separated by SDS-PAGE on a 10% acrylamide/bisacrylamide gel, running at 80 V for 15 minutes followed by 130 V for 60 minutes. The separated proteins were then transferred onto a nitrocellulose membrane using the iBlot 2 Dry Blotting System (Thermo Fisher Scientific, Waltham, MA, USA). The membranes were blocked with 5% BSA for 1 hour at room temperature to prevent nonspecific binding. Primary antibodies were then added, and the membranes were incubated overnight at 4 °C. The primary antibodies (Cell Signaling, Danvers, MA, USA) used included anti-β-ActinMouse mAb (1 : 5000), anti-Hsp90 Rabbit mAb (1 : 1000), anti-Hsp70 Mouse mAb (1 : 1000), anti-IGF1R Rabbit (1 : 1000), anti-CDK4 Rabbit (1 : 1000), anti-ERα Mouse mAb (1 : 1000), anti-Akt Rabbit mAb (1 : 1000), and anti-c-Raf Rabbit mAb (1 : 1000). Secondary antibodies included anti-rabbit IgG, HRP-linked antibody (1 : 10 000), and anti-mouse IgG, HRP-linked antibody (1 : 10 000), which were incubated with the membranes for 1 hour at room temperature. Following washes, SuperSignal™ West Femto Maximum Sensitivity Substrate (Thermo Fisher Scientific, Waltham, MA, USA) was applied. Visualization of the blots was performed using the UVITEC Cambridge Imaging System (UVITEC, Cambridge, UK), and densitometric analysis of the western blot bands was conducted using NineAlliance software. Relative protein densities were calculated in relation to β-actin, used as a loading control.
# [2] = target: T1, full-length Hsp90β and Cdc37 (Homo sapiens, UniProt P08238); assay: MST PPI inhibition evaluation: Kd for Hsp90β in the presence of Cdc37; assay type: binding
# T1 construct: host or cells: Escherichia coli strain Rosetta (Hsp90β)
# T1 sequence (P08238 whole entry): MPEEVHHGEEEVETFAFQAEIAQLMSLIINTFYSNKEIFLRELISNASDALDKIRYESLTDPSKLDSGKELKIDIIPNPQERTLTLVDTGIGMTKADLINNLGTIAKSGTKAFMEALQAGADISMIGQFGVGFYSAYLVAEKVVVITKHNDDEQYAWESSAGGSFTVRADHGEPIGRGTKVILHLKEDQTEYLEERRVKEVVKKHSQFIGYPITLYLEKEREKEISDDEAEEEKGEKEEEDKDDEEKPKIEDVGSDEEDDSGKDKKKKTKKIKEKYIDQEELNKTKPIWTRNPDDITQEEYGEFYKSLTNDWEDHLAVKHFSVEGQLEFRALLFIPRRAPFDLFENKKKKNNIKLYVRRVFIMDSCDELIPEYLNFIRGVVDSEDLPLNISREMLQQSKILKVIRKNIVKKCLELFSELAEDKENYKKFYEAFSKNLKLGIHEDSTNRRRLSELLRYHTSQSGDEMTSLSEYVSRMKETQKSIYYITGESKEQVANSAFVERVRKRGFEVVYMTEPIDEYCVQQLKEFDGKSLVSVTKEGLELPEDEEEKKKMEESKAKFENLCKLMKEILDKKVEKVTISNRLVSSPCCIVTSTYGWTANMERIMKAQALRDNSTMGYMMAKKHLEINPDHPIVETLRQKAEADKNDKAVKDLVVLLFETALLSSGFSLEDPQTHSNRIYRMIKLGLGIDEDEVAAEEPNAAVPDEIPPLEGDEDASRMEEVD
# Experimental: The full-length Hsp90β was labeled using the Monolith His-Tag Labeling Kit RED-tris-NTA following the manufacturer's instructions (NanoTemper Technologies GmbH, Munich, Germany). The proteins were first diluted to a concentration of 8 nM in assay buffer (50 mM Tris–HCl, pH 7.4, containing 150 mM NaCl, 5% ethanol, and 10 mM MgCl2). To determine the Kd values, the proteins were mixed with the test compounds in a 1 : 1 ratio as stated in the manufacturers protocol. The final concentration of Hsp90β was 4 nM, with compounds added in the following ranges: 1000 μM to 5.86 μM for 8c; 312.5 μM to 0.15 μM for 13g and 125 μM to 3.91 μM for 1. Two independent Kd determinations were performed for compounds 8c and 13g. […] Next, Cdc37 (AR09008PUN, OriGene Technologies, Inc., Rockville, MD, USA) was acquired for the purpose of PPI inhibition evaluation between full-length Hsp90β and Cdc37. […] In all experiments the compounds were incubated with the proteins for 15 minutes in the dark at room temperature. The mixtures were then loaded into Monolith NT.115 Premium Capillaries (NanoTemper Technologies GmbH, Munich, Germany). Thermophoresis was induced at 1475 ± 15 nm and measured using a Monolith NT.115 pico instrument (NanoTemper Technologies GmbH, Munich, Germany). Measurements were conducted at ambient temperature (24–25 °C), with excitation power set to 20% and MST power set to 40%, and a laser on time of 5 seconds. To calculate the Kd values, the average fluorescence responses for each concentration were plotted against the logarithm of compound concentrate on using GraphPad Prism software (GraphPad Software, Inc., La Jolla, CA).
# [3] = test system: Ewing sarcoma cell line SK-N-MC; assay: MTS cell viability (antiproliferative) assay in SK-N-MC; assay type: cell-based; conditions: Homo sapiens, SK-N-MC, 72 hours, mean ± SD
# Experimental: Hormone-positive breast cancer cell line MCF-7 (ATCC-HTB-22; ATCC) was grown in Dulbecco's Modified Eagle's Medium (DMEM), while Ewing sarcoma cell line SK-N-MC (a kind gift from Beat Schäfer) and THP-1 (ATCC-TIB-202; ATCC) cells were grown in Roswell Park Memorial Institute (RPMI) 1640. The medium was supplemented with 10% heat-inactivated fetal bovine serum (Gibco, Thermo Fisher Scientific, Waltham, MA, USA), 100 U per mL penicillin, 100 μg per mL streptomycin, and 2 mM L-glutamine (all from Sigma-Aldrich, St. Louis, MO, USA). All cell lines were incubated at 37 °C in a 5% CO2 atmosphere.
# The antiproliferative activity of the compounds was evaluated against MCF-7 (ATCC-HTB-22; ATCC), SK-N-MC (a kind gift from Beat Schäfer) and THP-1 (ATCC-TIB-202; ATCC) cancer cell lines using the MTS assay (Promega, Madison, WI, USA). Cells were seeded in 96-well plates at a density of 2 × 10^4 cells per mL in 100 μL of growth medium for THP-1 and were treated with compounds and controls directly, while 3 × 10^3 cells per mL for MCF-7 and SK-N-MC were seeded in 100 μL of growth medium and allowed to adhere overnight following the treatment. In all cases the cells were treated with respective newly prepared compounds, positive controls (17-DMAG for MCF-7 and SK-N-MC; PU-H71 for THP-1) and a vehicle control (0.5% DMSO). The incubation time after treatment was 72 hours, then CellTiter96® Aqueous One Solution Reagent (Promega, Madison, WI, USA) was added to each well. Following a 3 hours incubation, absorbance was measured at 492 nm using BioTek's Synergy™ 4 Hybrid Microplate Reader (Winooski, VT, USA). The measurements were performed in two biological repetitions and each time the experiment was performed in a triplicate. The IC50 values, representing the concentration of inhibitor required for half-maximal inhibition, are the average of three independent experiments and were calculated using GraphPad Prism 9.5.0 software (San Diego, CA, USA).
Kd (Hsp90β) in presence of Cdc37 ([2]; 1.0 μM Cdc37),IC50 [3] [µM],Kd ([2]; 0.5 μM Cdc37) [µM],Kd ([2]; 1.0 μM Cdc37) [µM],Kd ([2]; 2.0 μM Cdc37) [µM],SMILES,ERα level ([1]; 24 hours),"concentration of kinase clients Cdk4, c-Raf, IGF1R, and Akt ([1]; MCF-7, 50 μM, 24 hours)",heat shock response (Hsp70 and Hsp90 levels) [1],"Hsp70 levels ([1]; MCF-7, 50 μM, 24 hours)"
too low for quantification,20 ± 1.5,,,,"O=C(NCCOc1ccccc1)c1ccc(Nc2cc(N3CCNCC3)ncn2)cc1 [Compound 13g, N-(2-Phenoxyethyl)-4-((6-(piperazin-1-yl)pyrimidin-4-yl)amino)benzamide]",significantly influenced,decreased,do not induce a heat shock response,
,12.8 ± 0.9,81.7,90.2,98.2,"CN(CCOc1ccccc1)C(=O)c1csc(Nc2cc(N3CCNCC3)ncn2)n1 [Compound 8c, N-Methyl-N-(2-phenoxyethyl)-2-((6-(piperazin-1-yl)pyrimidin-4-yl)amino)thiazole-4-carboxamide]",significantly influenced,decreased,do not induce a heat shock response,statistically insignificant decrease
